This is an account of results in patent US4762821A, “N',N"-dialkylguanidino dipeptides” (Syntex (U.S.A.) Inc., priority 1986, dated 1988).

This assay addresses T1, ACE from crude rabbit lung acetone powder (Oryctolagus cuniculus, UniProt P12822).
T1 construct: a preparation of ACE from crude rabbit lung acetone powder; from tissue; host or cells: rabbit lung (crude acetone powder)
T1 sequence (P12822 34-1310): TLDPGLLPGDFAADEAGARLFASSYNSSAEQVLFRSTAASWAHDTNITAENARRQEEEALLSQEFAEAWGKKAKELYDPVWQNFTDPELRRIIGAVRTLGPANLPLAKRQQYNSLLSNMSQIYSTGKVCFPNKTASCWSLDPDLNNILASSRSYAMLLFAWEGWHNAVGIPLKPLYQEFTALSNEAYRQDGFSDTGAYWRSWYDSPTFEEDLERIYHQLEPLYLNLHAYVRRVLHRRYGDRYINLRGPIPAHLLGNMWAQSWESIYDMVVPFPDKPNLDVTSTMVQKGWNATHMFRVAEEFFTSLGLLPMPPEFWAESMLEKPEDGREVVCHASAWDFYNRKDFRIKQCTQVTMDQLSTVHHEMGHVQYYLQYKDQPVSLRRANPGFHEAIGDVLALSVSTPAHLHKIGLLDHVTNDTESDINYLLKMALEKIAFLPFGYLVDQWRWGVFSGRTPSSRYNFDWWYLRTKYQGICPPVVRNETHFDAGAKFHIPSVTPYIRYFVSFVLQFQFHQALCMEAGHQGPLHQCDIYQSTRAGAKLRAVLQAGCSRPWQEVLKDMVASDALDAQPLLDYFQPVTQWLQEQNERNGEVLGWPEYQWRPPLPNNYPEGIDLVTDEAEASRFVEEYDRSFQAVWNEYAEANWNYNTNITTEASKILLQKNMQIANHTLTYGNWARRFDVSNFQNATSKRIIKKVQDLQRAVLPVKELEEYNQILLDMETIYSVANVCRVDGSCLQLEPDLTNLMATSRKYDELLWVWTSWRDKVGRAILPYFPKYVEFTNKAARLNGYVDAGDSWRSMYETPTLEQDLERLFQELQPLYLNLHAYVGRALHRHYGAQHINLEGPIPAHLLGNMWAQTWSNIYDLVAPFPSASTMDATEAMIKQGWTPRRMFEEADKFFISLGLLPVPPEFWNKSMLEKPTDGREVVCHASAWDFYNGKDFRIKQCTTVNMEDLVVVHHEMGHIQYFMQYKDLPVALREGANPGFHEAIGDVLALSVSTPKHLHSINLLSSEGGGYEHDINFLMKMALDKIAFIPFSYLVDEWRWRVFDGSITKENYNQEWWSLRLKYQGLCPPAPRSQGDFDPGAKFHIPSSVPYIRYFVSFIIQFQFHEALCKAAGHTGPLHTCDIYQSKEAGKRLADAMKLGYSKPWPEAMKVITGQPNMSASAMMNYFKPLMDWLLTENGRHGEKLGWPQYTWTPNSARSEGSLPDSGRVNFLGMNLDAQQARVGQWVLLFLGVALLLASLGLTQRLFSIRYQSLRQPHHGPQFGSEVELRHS
Nature of the assay: in vitro ACE inhibition, hydrolysis of hippuryl-histidyl-leucine (HHL). Type of assay: biochemical. As to conditions: substrate HHL; test compound studied at concentrations between 10^-9 to 10^-4 M. As for the experimental part:
A number of in vitro and in vivo models are available to assess the biological activity of ACE inhibitors. (cf E. W. Petrillo, Jr. and M. A. Ondetti, Medical Res. Rev. 2, 1 (1982) and references therein). A particularly useful in vitro test employs a preparation of ACE from rabbit lung (either crude or purified) and uses the synthetic substrate (hippuryl-histidyl-leucine) as substrate (D. W. Cushman and H. S. Cheung, Biochem. Pharmacol., 20, 1637 (1971)). The substances to be tested are assessed for their ability to block the cleavage of the substrate and doses which cause 50% inhibition of the hydrolysis of the substrate are determined (ID50). In this and other studies, the incorporation of a literature standard (usually captopril) is helpful.
The ACE inhibiting ability of the dipeptides of formula A is assessed in the in vitro model employing a preparation of ACE from crude rabbit lung acetone powder. Hippuryl-histidyl-leucine (HHL) is used as synthetic substrate to be cleaved (hydrolysed) by ACE (D. W. Cushman and H. S. Cheung, Biochem. Pharmacol., 20, 1637 (1971)). The following compounds of formula A, identified by Arabic numerals (referred to above), were assessed for their ability to block the hydrolysis of HHL to the C-terminal dipeptide His-Leu by the ACE preparation.
Consider `CCN=C(NCC)NCCCCC(NC(CC)C(=O)N1CCC[C@H]1C(=O)O)C(=O)O` (stereo partly drawn) [(12), N-[2-(N^G,N^G' -diethyl-L-homoargin-N^α -yl)butanoyl]-L-proline], for which the “ID50 (dose which causes a 50% inhibition of the hydrolysis of HHL)” value stood at 230 nM.

Turning to `CCCCNC(=NC)NCCCCC(NC(C)C(=O)N1CCC[C@H]1C(=O)O)C(=O)O` (stereo partly drawn) [(11), N-[2-(N^G -methyl-N^G' -n-butyl-L-homoargin-N^α -yl)propionyl]-L-proline], the “ID50 (dose which causes a 50% inhibition of the hydrolysis of HHL)” value is 280 nM.

Consider `CCN=C(NCC)NCCCC[C@H](N[C@@H](CC)C(=O)N1Cc2ccccc2C[C@H]1C(=O)O)C(=O)O` [(4), (S)-N-[(S)-2-[N^G,N^G' -diethyl-(S)-homoargin-Nα-yl]butanoyl]-THIQ], for which the “ID50 (dose which causes a 50% inhibition of the hydrolysis of HHL)” value was 65 nM.

Consider `C[C@H](N[C@@H](CCCCNC(=NCC(F)(F)F)NCC(F)(F)F)C(=O)O)C(=O)N1Cc2ccccc2C[C@H]1C(=O)O` [(2), (S)-N-[(S)-2-[N^G,N^G' -bis(2,2,2-trifluoroethyl)-(S)-homoargin-Nα-yl]propionyl]-THIQ], for which the “ID50 (dose which causes a 50% inhibition of the hydrolysis of HHL)” value came out at 90 nM.

In the case of `CCCC(NC(CCCCNC(=NCC)NCC)C(=O)O)C(=O)N1CCC[C@H]1C(=O)O` (stereo partly drawn) [(13), N-[2-(N^G,N^G' -diethyl-L-homoargin-N^α -yl)pentanoyl]-L-proline], the “ID50 (dose which causes a 50% inhibition of the hydrolysis of HHL)” value was determined as 60 nM.

For `CCN=C(NCC)NCCCC[C@H](N[C@@H](C)C(=O)N1c2ccccc2C[C@H]1C(=O)O)C(=O)O` [(10), (S)-N-[(S)-2-[N^G,N^G' -diethyl-(S)-homoargin-Nα-yl]propanoyl]-2-carboxy-2,3-dihydroindole], the “ID50 (dose which causes a 50% inhibition of the hydrolysis of HHL)” value stood at 180 nM.

Consider `CCCCNC(=NC)NCCCC[C@H](N[C@@H](C)C(=O)N1Cc2ccccc2C[C@H]1C(=O)O)C(=O)O` [(3), (S)-N-[(S)-2-[N^G -methyl-N^G' -n-butyl-(S)-homoargin-Nα-yl]propionyl]-THIQ], for which the “ID50 (dose which causes a 50% inhibition of the hydrolysis of HHL)” value came to 220 nM.

For the compound `CCN=C(NCC)NCCCC[C@H](N[C@@H](C)C(=O)N1Cc2ccccc2C[C@H]1C(=O)O)C(=O)O` [(1), (S)-N-[(S)-2-[N^G,N^G' -diethyl-(S)-homoargin-Nα-yl]propionyl]-THIQ], the “ID50 (dose which causes a 50% inhibition of the hydrolysis of HHL)” value came to 60 nM.
